A short description of this data set: physchem. In kind it is physicochemical. To be noted: water, thermodynamic from solid. How it is done: Measurement of the water solubility of the test compounds is accomplished by using methods well known to those skilled in the art. Specifically, to a weighed amount of the test compound of the example compound Formula I (1-1) distilled water was added in small proportions until a clear solution was obtained. The total volume of the solution is measured. The water solubility is calculated by dividing the weight of the salt, in milligrams (mg), by the volume of the solution, in mL. […] The compound of Formula I (1-1) is therefore, at least 372 times more soluble in water than EPA itself. This is a clear indication of an unexpectedly high degree of bioavailability of the compositions of the invention. Highly water soluble medicinal preparations, when administered orally, result in efficient absorption from the gastrointestinal tract in to systemic circulation. Furthermore, water soluble preparations are especially suitable for parenteral administration.

Structures are written as SMILES.

As to `CC/C=C\C/C=C\C/C=C\C/C=C\C/C=C\CCCC(=O)O` [EPA, Eicosapentaenoic Acid], the solubility is under 200 µg/mL.

Values taken from patent US20150148306A1, “COMPOSITIONS AND METHODS FOR THE TREATMENT OF INFLAMMATION” (priority 2012, published 2015).
